In one assay the test system is platelets. In words: Platelet adhesion assay: calcein-labeled platelets on fibrinogen-coated wells. The format is cell-based. The conditions noted are these: Homo sapiens, mean±SD. As for the experimental part:
Thirty microliters of human fibrinogen (50 μg/mL) in Tris/saline (100 mM NaCl, 50 mM Tris/HCl, pH 7.4; American Diagnostica, Stamford, Conn.) are added to black, clear-bottom, untreated polystyrene, nonsterile 384-well microtiter plate wells (Corning no. 3711; Acton, Mass.). […] An additional wash is performed using HBMT with 1 mM MgCl2 and 2 mM CaCl2. Calcein-labeled platelets (final concentration 1×10^11/L) are treated with selected Compounds of the Invention (final concentration of 100 μM, 30 μM, 10 μM or 1 μM) at 22° C. for 20 minutes. Thirty microliters of platelets are then added to the wells. After 1 hour of adhesion, wells are washed 3 times with HBMT-1 mM MgCl2/2 mM CaCl2 and the plates are read by a fluorescent microtiter plate reader (Envision; Perkin Elmer) to detect calcein fluorescence (490 nm excitation and 515 nm emission). Negative controls consist of wells containing platelets without compounds of the invention.

The next assay relates to hαIIb/mβ3 platelets. In words: ADP-induced aggregation of platelets from mice expressing hαIIb/mβ3 (Example 45). The format is cell-based, mouse. As for the experimental part: Blood may be drawn via cardiac puncture from anesthetized Sprague Dawley rats (Taconic, Hudson, N.Y.), WT C57B1/6 mice (Jackson Laboratories, Bar Harbor, Me.), and mice expressing hαIIb/mβ3 and diluted 1:1 with a mixture of 4 parts 0.165 […], pH 7.4 containing 2 mM CaCl2 and 1 mM MgCl2. Blood from consenting human volunteers is obtained from a peripheral vein using a 19 gauge needle and anticoagulated with 1:10 vol 3.8% sodium citrate. Platelet-rich plasma (PRP) may be isolated by centrifugation at 22° C. at 350 g for 10 minutes (rats); 250 g for 2.5 minutes (mice); or 650 g for 4 minutes (human). Mouse PRP samples may be adjusted to 400,000 platelets/μl with the buffer used for dilution and human PRP may be adjusted to 300,000 platelets/μl with platelet-poor plasma. Samples of PRP may be either untreated or incubated for 5 minutes at 37° C. with the Compounds of the Invention (100 μM). Platelet aggregation may be induced by adding to PRP adenosine diphosphate (ADP) at 30 μM (rats and WT mice), 20 or 30 μM (hαIIb/mβ3 mice), or 5 μM (humans), and light transmission may be measured over time in an aggregometer (Kowa AG-10E, Tokyo, Japan) with stirring. Percent inhibition may be calculated by comparing the initial slope of untreated samples to the samples treated with the Compounds of the Invention.

Structures are written as SMILES.

`NCC(=O)Nc1cccc(-c2nn3c(=O)cc(N4CCNCC4)nc3s2)c1` [Example 27, 2-amino-N-(3-(5-oxo-7-(piperazin-1-yl)-5H-[1,3,4]thiadiazolo[3,2-a]pyrimidin-2-yl)phenyl)acetamide]: the inhibition (as a rule, the percentage by which the read-out fell short of the control) at 10 µM in the assay on platelets (10 μM) is 66 ± 10%. Moreover, the inhibition at 30 µM in the assay on platelets (30 μM, 5 separate experiments) is 80 ± 13%. Moreover, in the assay with platelets (100 μM, 5 separate experiments), the inhibition at 100 µM is 83 ± 7%. For the same compound, in the assay on hαIIb/mβ3 platelets, the “inhibition of aggregation of platelets from a mouse expressing hαIIb/mβ3” value is “essentially completely inhibits the aggregation”.

Values taken from patent US9066948B2, “Oxadiazolo[3,2-a]pyrimidines and thiadiazolo[3,2-a]pyrimidines” (THE UNITED STATES OF AMERICA AS REPRESENTED BY THE …, priority 2010, dated 2015).
